Data taken from the supplement of paper PMC6045584.
± gives the standard deviation of the averaged measurements.

Key:
[1] = compound: CO[C@H]1C[C@@H]2CC[C@@H](C)[C@@](O)(O2)C(=O)C(=O)N2CCCC[C@H]2C(=O)O[C@H]([C@H](C)C[C@@H]2CC[C@@H](OCCO)[C@H](OC)C2)CC(=O)[C@H](C)/C=C(\C)[C@@H](O)[C@@H](OC)C(=O)[C@H](C)C[C@H](C)/C=C/C=C/C=C/1C [EVEROLIMUS]; assay: surviving fraction relative to DMSO-only wells; higher = less growth inhibition; details: exposure time: 5 days
In short: (§1)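 Surviving fraction is CellTiter-Glo luminescence divided by the median of wells given DMSO only. For this, log-phase tumour cell lines went into 384-well plates at 250–500 cells per well and, 24 hours later, into five days of continuous inhibitor exposure at 0.5, 1, 5, 10, 50, 100, 500 and 1000 nM. Lines were screened three times and retained only if replicate Pearson r >0.7 and median Z' >0.3.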

[2] = compound: Cc1nc(Nc2n[nH]c3c2CN(C(=O)N[C@H](CN(C)C)c2ccccc2)C3(C)C)c2sccc2n1; assay: as above; details: exposure time: 5 days
In short: as §1

Test System: MDAMB231 BREAST
- surviving fraction ([1]; 0.5 nM): 0.779 ± 0.021
- surviving fraction ([1]; 1 nM): 0.73 ± 0.028
- surviving fraction ([1]; 5 nM): 0.621 ± 0.029
- surviving fraction ([1]; 10 nM): 0.5901 ± 0.005
- surviving fraction ([1]; 50 nM): 0.591 ± 0.022
- surviving fraction ([1]; 100 nM): 0.575 ± 0.019
- surviving fraction ([1]; 500 nM): 0.541 ± 0.038
- surviving fraction ([1]; 1000 nM): 0.521 ± 0.038
- surviving fraction ([2]; 0.5 nM): 0.964 ± 0.023
- surviving fraction ([2]; 1 nM): 0.923 ± 0.029
- surviving fraction ([2]; 5 nM): 0.667 ± 0.012
- surviving fraction ([2]; 10 nM): 0.591 ± 0.019
- surviving fraction ([2]; 50 nM): 0.474 ± 0.0092
- surviving fraction ([2]; 100 nM): 0.433 ± 0.022
- surviving fraction ([2]; 500 nM): 0.205 ± 0.0056
- surviving fraction ([2]; 1000 nM): 0.0829 ± 0.0099

Test System: MDAMB361 BREAST
- surviving fraction ([1]; 0.5 nM): 0.739 ± 0.061
- surviving fraction ([1]; 1 nM): 0.815 ± 0.098
- surviving fraction ([1]; 5 nM): 0.697 ± 0.0076
- surviving fraction ([1]; 10 nM): 0.631 ± 0.049
- surviving fraction ([1]; 50 nM): 0.62 ± 0.028
- surviving fraction ([1]; 100 nM): 0.584 ± 0.0067
- surviving fraction ([1]; 500 nM): 0.547 ± 0.015
- surviving fraction ([1]; 1000 nM): 0.543 ± 0.039
- surviving fraction ([2]; 0.5 nM): 1.028 ± 0.0062
- surviving fraction ([2]; 1 nM): 1.13 ± 0.074
- surviving fraction ([2]; 5 nM): 1.1 ± 0.065
- surviving fraction ([2]; 10 nM): 1.02 ± 0.072
- surviving fraction ([2]; 50 nM): 0.837 ± 0.016
- surviving fraction ([2]; 100 nM): 0.796 ± 0.054
- surviving fraction ([2]; 500 nM): 0.5827 ± 0.004
- surviving fraction ([2]; 1000 nM): 0.238 ± 0.0081

Test System: MDAMB436 BREAST
- surviving fraction ([1]; 0.5 nM): 0.7 ± 0.022
- surviving fraction ([1]; 1 nM): 0.655 ± 0.044
- surviving fraction ([1]; 5 nM): 0.598 ± 0.027
- surviving fraction ([1]; 10 nM): 0.606 ± 0.039
- surviving fraction ([1]; 50 nM): 0.577 ± 0.025
- surviving fraction ([1]; 100 nM): 0.589 ± 0.046
- surviving fraction ([1]; 500 nM): 0.633 ± 0.057
- surviving fraction ([1]; 1000 nM): 0.558 ± 0.061
- surviving fraction ([2]; 0.5 nM): 0.952 ± 0.044
- surviving fraction ([2]; 1 nM): 1 ± 0.066
- surviving fraction ([2]; 5 nM): 0.932 ± 0.07
- surviving fraction ([2]; 10 nM): 0.856 ± 0.071
- surviving fraction ([2]; 50 nM): 0.718 ± 0.016
- surviving fraction ([2]; 100 nM): 0.61 ± 0.061
- surviving fraction ([2]; 500 nM): 0.507 ± 0.025
- surviving fraction ([2]; 1000 nM): 0.432 ± 0.03

Test System: MDAMB453 BREAST
- surviving fraction ([1]; 0.5 nM): 0.941 ± 0.11
- surviving fraction ([1]; 1 nM): 0.75 ± 0.07
- surviving fraction ([1]; 5 nM): 0.461 ± 0.0079
- surviving fraction ([1]; 10 nM): 0.369 ± 0.037
- surviving fraction ([1]; 50 nM): 0.339 ± 0.035
- surviving fraction ([1]; 100 nM): 0.305 ± 0.018
- surviving fraction ([1]; 500 nM): 0.301 ± 0.024
- surviving fraction ([1]; 1000 nM): 0.284 ± 0.011
- surviving fraction ([2]; 0.5 nM): 1.14 ± 0.062
- surviving fraction ([2]; 1 nM): 1.03 ± 0.037
- surviving fraction ([2]; 5 nM): 0.648 ± 0.045
- surviving fraction ([2]; 10 nM): 0.598 ± 0.018
- surviving fraction ([2]; 50 nM): 0.416 ± 0.038
- surviving fraction ([2]; 100 nM): 0.359 ± 0.048
- surviving fraction ([2]; 500 nM): 0.23 ± 0.07
- surviving fraction ([2]; 1000 nM): 0.0803 ± 0.015

Test System: MDAMB468 BREAST
- surviving fraction ([1]; 0.5 nM): 0.759 ± 0.076
- surviving fraction ([1]; 1 nM): 0.669 ± 0.043
- surviving fraction ([1]; 5 nM): 0.599 ± 0.031
- surviving fraction ([1]; 10 nM): 0.546 ± 0.045
- surviving fraction ([1]; 50 nM): 0.55 ± 0.017
- surviving fraction ([1]; 100 nM): 0.601 ± 0.0052
- surviving fraction ([1]; 500 nM): 0.551 ± 0.044
- surviving fraction ([1]; 1000 nM): 0.522 ± 0.066
- surviving fraction ([2]; 0.5 nM): 1.054 ± 0.0091
- surviving fraction ([2]; 1 nM): 0.914 ± 0.085
- surviving fraction ([2]; 5 nM): 0.213 ± 0.02
- surviving fraction ([2]; 10 nM): 0.19 ± 0.011
- surviving fraction ([2]; 50 nM): 0.096 ± 0.004
- surviving fraction ([2]; 100 nM): 0.102 ± 0.0076
- surviving fraction ([2]; 500 nM): 0.0473 ± 0.0076
- surviving fraction ([2]; 1000 nM): 0.0353 ± 0.0015

Test System: MFM223 BREAST
- surviving fraction ([1]; 0.5 nM): 0.953 ± 0.069
- surviving fraction ([1]; 1 nM): 0.912 ± 0.077
- surviving fraction ([1]; 5 nM): 0.73 ± 0.049
- surviving fraction ([1]; 10 nM): 0.749 ± 0.082
- surviving fraction ([1]; 50 nM): 0.669 ± 0.053
- surviving fraction ([1]; 100 nM): 0.638 ± 0.068
- surviving fraction ([1]; 500 nM): 0.706 ± 0.076
- surviving fraction ([1]; 1000 nM): 0.754 ± 0.053
- surviving fraction ([2]; 0.5 nM): 1.11 ± 0.074
- surviving fraction ([2]; 1 nM): 1.03 ± 0.049
- surviving fraction ([2]; 5 nM): 0.827 ± 0.015
- surviving fraction ([2]; 10 nM): 0.637 ± 0.051
- surviving fraction ([2]; 50 nM): 0.474 ± 0.021
- surviving fraction ([2]; 100 nM): 0.349 ± 0.038
- surviving fraction ([2]; 500 nM): 0.14 ± 0.013
- surviving fraction ([2]; 1000 nM): 0.0562 ± 0.005

Test System: MG63 BONE
- surviving fraction ([1]; 0.5 nM): 0.954 ± 0.019
- surviving fraction ([1]; 1 nM): 0.8723 ± 0.0081
- surviving fraction ([1]; 5 nM): 0.747 ± 0.027
- surviving fraction ([1]; 10 nM): 0.6393 ± 0.0057
- surviving fraction ([1]; 50 nM): 0.594 ± 0.026
- surviving fraction ([1]; 100 nM): 0.57 ± 0.02
- surviving fraction ([1]; 500 nM): 0.481 ± 0.021
- surviving fraction ([1]; 1000 nM): 0.4813 ± 0.0035
- surviving fraction ([2]; 0.5 nM): 0.921 ± 0.038
- surviving fraction ([2]; 1 nM): 0.805 ± 0.025
- surviving fraction ([2]; 5 nM): 0.468 ± 0.0074
- surviving fraction ([2]; 10 nM): 0.336 ± 0.024
- surviving fraction ([2]; 50 nM): 0.257 ± 0.016
- surviving fraction ([2]; 100 nM): 0.275 ± 0.0096
- surviving fraction ([2]; 500 nM): 0.228 ± 0.015
- surviving fraction ([2]; 1000 nM): 0.227 ± 0.013

Test System: MHM BONE
- surviving fraction ([1]; 0.5 nM): 0.926 ± 0.063
- surviving fraction ([1]; 1 nM): 0.864 ± 0.049
- surviving fraction ([1]; 5 nM): 0.743 ± 0.057
- surviving fraction ([1]; 10 nM): 0.696 ± 0.059
- surviving fraction ([1]; 50 nM): 0.664 ± 0.029
- surviving fraction ([1]; 100 nM): 0.672 ± 0.019
- surviving fraction ([1]; 500 nM): 0.63 ± 0.011
- surviving fraction ([1]; 1000 nM): 0.638 ± 0.032
- surviving fraction ([2]; 0.5 nM): 0.953 ± 0.02
- surviving fraction ([2]; 1 nM): 0.935 ± 0.016
- surviving fraction ([2]; 5 nM): 0.924 ± 0.034
- surviving fraction ([2]; 10 nM): 0.906 ± 0.015
- surviving fraction ([2]; 50 nM): 0.692 ± 0.03
- surviving fraction ([2]; 100 nM): 0.664 ± 0.022
- surviving fraction ([2]; 500 nM): 0.559 ± 0.023
- surviving fraction ([2]; 1000 nM): 0.535 ± 0.014

Test System: NCIH441 LUNG
- surviving fraction ([1]; 0.5 nM): 1.15 ± 0.031
- surviving fraction ([1]; 1 nM): 1.08 ± 0.098
- surviving fraction ([1]; 5 nM): 1.183 ± 0.0021
- surviving fraction ([1]; 10 nM): 1.04 ± 0.049
- surviving fraction ([1]; 50 nM): 0.864 ± 0.097
- surviving fraction ([1]; 100 nM): 1.03 ± 0.082
- surviving fraction ([1]; 500 nM): 0.933 ± 0.056
- surviving fraction ([1]; 1000 nM): 0.876 ± 0.076
- surviving fraction ([2]; 0.5 nM): 0.955 ± 0.014
- surviving fraction ([2]; 1 nM): 0.938 ± 0.1
- surviving fraction ([2]; 5 nM): 0.637 ± 0.057
- surviving fraction ([2]; 10 nM): 0.632 ± 0.0076
- surviving fraction ([2]; 50 nM): 0.463 ± 0.026
- surviving fraction ([2]; 100 nM): 0.452 ± 0.04
- surviving fraction ([2]; 500 nM): 0.379 ± 0.048
- surviving fraction ([2]; 1000 nM): 0.329 ± 0.018

Test System: NOS1 BONE
- surviving fraction ([1]; 0.5 nM): 0.77 ± 0.073
- surviving fraction ([1]; 1 nM): 0.655 ± 0.039
- surviving fraction ([1]; 5 nM): 0.607 ± 0.022
- surviving fraction ([1]; 10 nM): 0.536 ± 0.048
- surviving fraction ([1]; 50 nM): 0.491 ± 0.03
- surviving fraction ([1]; 100 nM): 0.461 ± 0.052
- surviving fraction ([1]; 500 nM): 0.415 ± 0.019
- surviving fraction ([1]; 1000 nM): 0.362 ± 0.023
- surviving fraction ([2]; 0.5 nM): 0.922 ± 0.046
- surviving fraction ([2]; 1 nM): 0.847 ± 0.078
- surviving fraction ([2]; 5 nM): 0.695 ± 0.051
- surviving fraction ([2]; 10 nM): 0.657 ± 0.073
- surviving fraction ([2]; 50 nM): 0.589 ± 0.062
- surviving fraction ([2]; 100 nM): 0.559 ± 0.062
- surviving fraction ([2]; 500 nM): 0.272 ± 0.043
- surviving fraction ([2]; 1000 nM): 0.134 ± 0.0068
